In patent US11447533B2, “Antimicrobial and anticancer peptides and conjugates and compositions, methods, articles and kits relating thereto” (George Mason Research Foundation, Inc., priority 2018, dated 2022):

Assays:
[1] = system: leucocytes and T-cells; details: cited from earlier work
[2] = system: primary lung epithelium cells; test: Cytotoxicity (Alamar blue); format: cell-based, human
Method: FIGS. 11A-11B are graphs showing cytotoxicity against primary lung epithelium cells in serum-free condition. Cells were seeded in complete growth medium (Minimal essential medium supplemented with 10% fetal bovine serum) at near-confluence into a 96-well plate and allowed to settle for 24-hours. Media was then replaced to OptiMEM I reduced serum medium containing peptide or vehicle alone (DBPS) and cells were incubated overnight (16 hours). A resazurin based dye (Alamar blue) was added directly to media and conversion of resazurin to resorufin was evaluated following two hours. % Survival represents the proportion of viable cells in peptide treated cells relative to cells treated with vehicle alone. […] Each peptide was tested in triplicate.
FIG. 12 is a graph showing comparison of toxicities against Lung Primary Epithelial cells and Lung Cancerous Epithelial Cells, derived from H358 cell-line. […] Each peptide was tested in triplicate.
Cytotoxicity. Cells were seeded in complete growth medium (Minimal Essential Medium, MEMα, supplemented with 10% Fetal Bovine Serum) into a culture-treated 96-well plate at a density of 25000 cells per well. After 24 hours, culture media was aspirated and replaced with media containing the selected peptide. No-serum experiments were conducted in Opti-MEM I reduced serum media (ThermoFisher, 31985062) and 10% serum experiments were performed in complete growth medium. In all cases, DBPS was used as a vehicle only control and buffer to serially dilute the peptides. After exposure to the peptides or vehicle-alone for the defined period, Alamar blue dye (resazurin) was added directly to the media and allowed to incubate for two hours. Following incubation, A570/A600 measurements were made to calculate reduction of resazurin dye to resorufin. A ratio of reduction in treated versus untreated cells was calculated in order to determine overall cell viability. The human cells were always maintained in a 37° C. incubator under 5% CO2.

[3] = system: E. coli ATCC 25922; test: Antimicrobial efficacy (resazurin virtual colony count); format: cell-based, Escherichia coli
Method: (§1) Antimicrobial Studies. The phosphate buffers used for antimicrobial assays were supplemented with non-nitrogenous energy source, 0.1% (w/v) glucose. To conduct antimicrobial assays, bacterial strains were first suspended in respective buffers. E. coli (ATCC 25922) and B. cereus (ATCC 11778) were grown in MHB II up to OD600 nm˜1 and stored as frozen stock in 20% glycerol at −80° C. Occasionally they were thawed and enumerated by serial dilution and spreading on MHB II agar plates. The concentrations of the frozen stocks of E. coli and B. cereus strains were 1.0-1.1*10^8 CFU/mL with OD600 nm˜0.8. In case of other bacterial strains, they were grown on the days of experiment up to OD600 nm˜1-1.5 and then adjusted to OD600 nm˜0.8. The growth media of the drug-resistant bacterial strains were supplemented with few of the respective antibiotics against which they are resistant. 200 μL of the 0.8 OD600 nm culture were added to 10 mL of the respective buffer to obtain a suspension which was used to incubate with equal volumes of peptide solution in the same buffer.
(§2) Antimicrobial assays in different phosphate buffers and serum were conducted by adapting, with necessary modifications a fast high-throughput method based on Virtual Colony Count technique and later modified by incorporating the use of resazurin. At first serial dilution of a microbial strain in respective buffer was poured in the wells of 96 well polypropylene microplate and was then added with same volume of 2× MHB II supplemented with 80 μg/mL resazurin and incubated at 35° C. in a Gemini EM Microplate Reader (Molecular Devices) overnight with intermittent shaking. As the microbe grows it reduces non-fluorescent resazurin to fluorescent resorufin and the fluorescent intensity of each well were measured (excitation=570 nm, emission=590 nm) each 5 min for 15 hours. The time (t, min) to reach a certain fluorescence (RFU=20000 with respect to the starting fluorescence) was correlated with the initial bacterial concentration (in CFU/mL) in the particular well to obtain a calibration plot of the form: Log([Bacteria],CFU/mL)=b+m*t Equation 4: […]
(§3) To obtain antimicrobial efficacy of the peptides, 50 μL of serially diluted peptide in a buffer was incubated with 50 μL microbial suspension in the same buffer for 3 hours in black polypropylene 96 well plate. After incubation the wells were added with 100 μL of 2× MHB II supplemented with 80 μg/mL resazurin and then incubated with continuous fluorescence reading for overnight time period as described earlier. The surviving microbial population (CFU/mL) in each well were calculated by first finding the time to reach a fluorescence of RFU=20000 and the correlation (4) for the specific microbial strain and buffer. % Survival represents the proportion of viable cells in peptide treated cells relative to cells treated with the respective buffer alone. Equation 5: […]
Finally, the antimicrobial effectiveness of each peptide against the particular microbial strain in the specific buffer was determined by plotting % microbial survival as a function of the log of the concentration of the peptide and fitting the resulting data to a variable-slope sigmoidal regression model (equation 6). In this equation, log(EC50) represents the log of the concentration of the peptide required to kill half of the microbial population, where Smin and Smax correspond to the minimal and maximal microbial survival values (respectively), and H, Hill slope, is the parameter defining the steepness of the transition slopes of sigmoidal survival curves. % Microbial survival=Smin+(Smax−Smin)/(1+10^log(EC^50^)-log[peptide]*H) Equation 6: […]
The antimicrobial efficacies of the peptides were first tested against the model Gram-negative bacteria, E. coli ATCC 25922, in different phosphate buffers having varied ionic strengths and compositions. The phosphate buffers that were used included 10 mM sodium phosphate (calculated ionic strength˜25 mM), PBS and DPBS. […]

[4] = system: E. coli ML35p outer membrane; test: NPN assay, outer membrane perturbation; format: cell-based, Escherichia coli; details: PBS; 25 μM peptide; 25 μM PMB = 100%
Method: (§4) Interactions with Bacterial Membranes. Interaction of the peptides with bacterial membranes in different phosphate buffers were evaluated using E. coli ML35p, constructed in our laboratory. At first, competent cells of E. coli ML35 were produced by conventional competent cell preparation method, then transformed with pBR322 plasmid. Transformed colonies were selected after growing on Luria-agar containing 50 μg/mL ampicillin. A single transformed colony was grown in presence of ampicillin first in Luria broth and then in MHBII and stored as 20% glycerol stock at −80° C. This frozen stock, on the day of the experiment, was thawed and grown in MHBII containing ampicillin up to OD600 nm=0.8-0.9, washed with PBS and then suspended in the respective buffer up to the required OD600 nm for use.
NPN Assay. The outer membrane perturbation of bacteria was evaluated by incubating E. coli ML35p with peptides in presence of NPN. 100 mM NPN in acetone was supplemented proportionately to a bacterial suspension of OD600 nm˜0.5 to achieve a final concentration of 20 μM of NPN and the mixture was equilibrated for 30 mins. Then, 90 μL of the bacterial suspension containing 20 μM NPN was added with 10 μL of 250 μM peptide (10×) solution in water and scanned for fluorescence intensity (excitation=350 nm, emission=420 nm). The % Perturbation was calculated by considering PMB to be causing 100% Perturbation and water (without peptide) as 0% Perturbation. Each peptide was tested in triplicate in each of the three phosphate buffers used.
When peptides partition from the bulk aqueous environment to the cellular membranes, they may cause small defects in the membrane organization, a signature of adsorption of the peptides into the membranes. Such small defects are called membrane perturbations and can be evaluated by utilizing molecular probes. One such molecular probe is NPN, which is a hydrophobic molecule and is usually repelled to enter the hydrophobic interiors of the membrane by the polar headgroups of membrane-lipids. However, when small defects and gaps are caused during the adsorption of the peptides into the membranes, NPN can enter through those defects and in the hydrophobic environment of the membrane interior the molecule fluoresces, which can be measured for quantification of the extent of membrane-perturbation and peptide adsorption in the cellular membrane.

[5] = system: E. coli ML35p outer membrane; test: Outer membrane disruption (β-lactamase leakage, nitrocefin); format: cell-based, Escherichia coli; details: DPBS; HCMAB = 100%
Method: as §4
Membrane Disruptions. The outer and the inner membrane disruptions by the peptides were evaluated by incubating bacterial suspension with peptides and then measuring the activity of enzymes leaked out of the cells. 100 μL of 10× concentration of peptide in water was incubated with 900 μL bacterial suspension (OD600 nm˜0.1) in respective buffer for 3 hours at room temperature with gentle rotation. Then the cells and debris were separated by centrifugation (10000 r.p.m. for 30 mins) and the supernatant was collected and tested for activity of enzymes that had leaked out of the bacterial cells. HCMAB was used as a positive control to cause 100% membrane disruption and water as a negative causing 0% disruption.
The outer membrane disruption was tested by using the activity of beta-lactamase present in the periplasmic space of E. coli ML35p. Peptides when disrupt the outer membrane enough to cause beta-lactamase to come out, the degree of disruption can be measured by the virtue of the kinetics of the enzyme and using a chromogenic cephalosporin substrate called nitrocefin. β-lactamase mediated hydrolyzed product of nitrocefin has an absorbance αmax=486 nm. Supernatant collected from the incubation of peptide with bacteria was added with nitrocefin solution in DPBS and incubated at 35° C. and continuous absorbance readings. The slope of the linear section of the absorbance curve (absorbance vs time), was used as a measure of membrane disruption and the % Disruption was calculated as: Equation 7: […]
Some of the ATRA1-variants were further tested for their ability to disrupt outer and inner membranes to form pores or disruptions sufficiently large so as to allow enzymes to leak out of their cellular compartments (cytoplasm or periplasmic space). For this purpose, two reporter molecules were used with one being the substrate of a cytoplasmic enzyme and the other was a substrate for an enzyme residing in the periplasmic space. One of the reporters, nitrocefin was the substrate for β-lactamase, which is present in the bacterial periplasm, whereas the other molecule, ONPG, was the substrate for β-galactosidase, which resides in the cytoplasm of E. coli ML35p strain. […] Similarly, β-galactosidase activity in the supernatants is evidence of inner membrane disruption and possible pore formation. When the aforesaid supernatants were tested for nitrocefin and ONPG hydrolysis, the corresponding absorbance increased with time (data not shown) indicating β-lactamase and β-galactosidase activity, respectively, and thus disruption of both the inner and outer membranes. The slopes of the increase in absorbance as a function of time provides the rate of enzyme activity. The enzyme activities in supernatants collected after incubation of bacteria with the quaternary ammonium surfactant, hexadecyltrimethylammonium bromide (HCMAB) was used as an internal reference for 100% membrane disruption. Enzyme activity for supernatants collected for cells incubated in the absence of peptide provided a reference for 0% membrane disruption. Bee venom peptide melittin was used as a positive control. […]

[6] = system: B. cereus ATCC 11778; test: Antimicrobial efficacy (resazurin virtual colony count); format: cell-based, Bacillus cereus; details: DPBS
Method: as §1, with “200 μL of the 0.8 OD600 nm culture were added to 10 mL of the respective buffer to obtain a suspension which was used to incubate with equal volumes of peptide solution in the same buffer.” left out
as §2

[7] = system: Pseudomonas aeruginosa; test: Antimicrobial efficacy against ESKAPE pathogens; format: cell-based; details: mammalian serum
Method: as §1, §2, §3
Finally, the antimicrobial effectiveness of each peptide against the particular microbial strain in the specific buffer was determined by plotting % microbial survival as a function of the log of the concentration of the peptide and fitting the resulting data to a variable-slope sigmoidal regression model (equation 6). […]
ATRA1-R3W2-HYD, NA-CATH and PMB were evaluated for their effectiveness in mammalian serum conditions against pathogenic bacteria of both normal and drug-resistant strains. […]

[8] = ~16 hours (overnight), reduced serum conditions

| Compound | concentrations of significant cytotoxicity [1] [µM] | concentration over which toxicity was exhibited ([2]; ~6 hours, 10% fetal bovine serum) [µM] | concentration over which significant toxicity was observed [2, 8] | cytotoxicity, in words [2, 8] | antimicrobial efficacy, in words ([3]; DPBS (with Ca++ and Mg++), pH 7.4) | antimicrobial efficacy, in words ([3]; PBS (high / physiologically relevant ionic strength), pH 7.4) | membrane perturbation with respect to PMB [4] | outer membrane disruption (β-lactamase activity) relative to HCMAB [5] | antimicrobial efficacy, in words [6] | increase of EC50 in presence of albumin relative to EC50 in DPBS ([3]; DPBS + 4% (w/v) bovine serum albumin versus DPBS) | antimicrobial efficacy, in words ([3]; serum) | antimicrobial effectiveness, in words [7] |
| --- | --- | --- | --- | --- | --- | --- | --- | --- | --- | --- | --- | --- |
| CC[C@H](C)[C@H](NC(=O)[C@H](CCCCN)NC(=O)[C@H](CCC(=O)O)NC(=O)[C@H](CCCCN)NC(=O)[C@H](CO)NC(=O)[C@H](CCCCN)NC(=O)[C@H](CCCNC(=N)N)NC(=O)[C@H](Cc1ccccc1)NC(=O)[C@H](Cc1ccccc1)NC(=O)[C@H](CC(=O)O)NC(=O)CNC(=O)[C@H](CC(C)C)NC(=O)[C@@H](N)CC(C)C)C(=O)NCC(=O)N[C@@H](CCCCN)C(=O)N[C@@H](CCC(=O)O)C(=O)N[C@@H](Cc1ccccc1)C(=O)N[C@@H](CCCCN)C(=O)N[C@@H](CCCNC(=N)N)C(=O)N[C@H](C(=O)N[C@H](C(=O)N[C@@H](CCC(N)=O)C(=O)N[C@@H](CCCNC(=N)N)C(=O)N[C@H](C(=O)N[C@@H](CCCCN)C(=O)N[C@@H](CC(=O)O)C(=O)N[C@@H](Cc1ccccc1)C(=O)N[C@@H](CC(C)C)C(=O)N[C@@H](CCCNC(=N)N)C(=O)N[C@@H](CC(N)=O)C(=O)N[C@@H](CC(C)C)C(=O)N[C@H](C(=O)N1CCC[C@H]1C(=O)N[C@@H](CCCNC(=N)N)C(=O)N[C@H](C(=O)N[C@@H](CCC(=O)O)C(=O)N[C@@H](CO)C(=O)O)[C@@H](C)O)C(C)C)[C@@H](C)CC)C(C)C)[C@@H](C)CC [LL37] | 13 to 25 | > 10 | Over 10 μM | higher degrees of cytotoxicity | – | – | – | – | – | – | – | – |
| KRFKKFFKKFK (SEQ ID NO: 11) [ATRA1-F] | – | – | – | – | lost activity in DPBS | more effective than ATRA1 | decreased slightly | intermediate | somewhat effective | – | – | – |
| Polymyxin B [PMB, reference compound] | – | – | > 6 µM | – | – | – | – | – | – | approximately 3 fold | retained significant antimicrobial activities | effective |
